Measurements: US6846845B2, “Heat shock protein inducer” (Eisai Co., Ltd., priority 2002, dated 2005)

Assays:
Format in all cases: in vivo, rat
[1] = test system: iNOS; assay: iNOS induction in the heart after oral administration (Western blotting); details: oral 200 mg/kg, 24 hours after administration, FIG. 4(A)
Text: (§1) Monoclonal IgG antibody cross-reactive to HSP70, HSP60 and HSP27 antibodies was purchased from Stressgen Biotechnologies Corporation ([…], Canada). Primary antibodies of nitric oxide synthase (NOS) or in other words inducible NOS (iNOS), endothelial NOS (eNOS) and neuronal NOS (nNOS) were purchased from Transduction Laboratories (Lexington, Ky.). The primary antibody of thioredoxin was kindly provided by Professor Yodoi of Kyoto University.
(§2) An emulsion of 100% by weight of geranylgeranylacetone (GGA) with 5% by weight of gum arabic and 0.008% by weight of tocopherol was given orally to the rats described above. The oral dosages were 50 mg/kg, 100 mg/kg, 200 mg/kg and 400 mg/kg (GGA groups). […] The vehicle was administered orally to the Control Group.
(§3) Next, the hearts were removed from the killed rats and frozen in liquid nitrogen. […]
(§4) The total protein concentration of the myocardium was quantified by the Bradford method (Bradford M M. A rapid and sensitive method for quantitation of microgram quantities of protein utilizing the principle of protein-dye binding. Anal Biochem 1976; 72:248-254). […] The proteins were detected by exposing the ECL cells with Hyperfilm (Amersham Pharmacia, Buckinghamshire, UK). Based on this, the amount of proteins on the immunoblots was quantified using National Institutes of Health (NIH) imaging software. […]

[2] = test system: eNOS; assay: eNOS induction in the heart after oral administration (Western blotting); details: oral 200 mg/kg, 24 hours after administration, FIG. 4(A)
Text: as §1, §2, §3, §4

[3] = test system: HSP70; assay: Effect of chelerythrine pretreatment on GGA-induced HSP70 expression in the heart (Western immunoblotting), Example 2; details: 24 h after GGA 200 mg/kg oral or vehicle; chelerythrine 5 mg/kg i.v. pretreatment, FIG. 8
Description: Male Sprague-Dawley rats (220-250 g) were used. GGA, as an emulsion with 5% gum arabic and 0.008% tocopherol, was given orally at a dose of 200 mg/kg. Rats were classified into 4 groups. FIG. 7 is a diagrammatic representation of experimental protocol. […] Twenty-four hours after oral administration of GGA or vehicle, rats were anesthetized (sodium pentobarbital, 50 mg/kg IP) and heparinized (500 IU/kg IP). Hearts were excised, immediately frozen in liquid nitrogen, and stored at −70° C. until use for Western blot analysis (n=4 for each group). […]
To analyze the expression of HSP70, the frozen heart samples were homogenized with SDS sample buffer (pH 6.8, 20% glycerol, 6% SDS, 0.12M Tris), centrifuged and boiled (Maloyan A, Palmon A, Horowitz M. Heat acclimation increases the basal HSP70 level and alters its production dynamics during heat stress. Am J Physiol. 1999; 276:R1506-R1515.). […] The total protein concentration of heart was quantified by the Bradford method (Bradford MM. A rapid and sensitive method for quantitation of microgram quantities of protein utilizing the principle of protein-dye binding. Anal. Biochem. 1976;72:248-254). […] The proteins were detected by ECL with exposure to Hyperfilm (Amersham Pharmacia). The amount of protein on the immunoblots was quantified using National Institutes of Health image software. […]

CC(=O)CCC=C(C)CCC=C(C)CCC=C(C)CCC=C(C)C [GGA, 6, 10, 14, 18-tetramethyl-5,9, 13, 17-nonadecatetraen-2-one]
iNOS induction in the heart [1]: neither iNOS nor eNOS was induced | eNOS induction in the heart [2]: neither iNOS nor eNOS was induced | HSP70 expression in the heart (relative density to control group) [3]: increased
